Data reported in patent US20230079045A1 (priority 2019, published 2023).

Experiments:
IFVA/Weiss/43 = assay: cytopathic effect (CPE) antiviral test in MDCK cells, IFVA/Weiss/43; format: cell-based, influenza virus; conditions: unidentified influenza virus, MDCK, 120 h, read-out: EC50(IFVA/Weiss/43), MDCK cells, CPE method, CCK-8 cell viability, 5 days
IFVA/Mal/302/54 = assay: cytopathic effect (CPE) antiviral test in MDCK cells, IFVA/Mal/302/54; format: cell-based, influenza virus; conditions: unidentified influenza virus, MDCK, 120 h, read-out: EC50(IFVA/Mal/302/54), MDCK cells, CPE method, CCK-8 cell viability, 5 days

SMILES	EC50 (IFVA/Weiss/43)	EC50 (IFVA/Mal/302/54)
O=C(Nc1ccc2oc(-c3ccnc(C(=O)N4CCN(C(c5ccccc5)c5nnn(C(F)F)n5)CC4)c3)nc2c1)C1CC1 (racemic) [Compound 196, (R/S)—N-(2-(2-(4-((2-(difluoromethyl)-2H-tetrazol-5-yl)(phenyl)methyl)piperazine-1-carbonyl)pyridin-4-yl)benzo[d]oxazol-5-yl)cyclopropanecarboxamide]	6 nM	8 nM
O=C(c1cc(-c2nc3cc(N4CCCC4)ccc3o2)ccn1)N1CCN(C(c2ccccc2)c2nnn(C(F)F)n2)CC1 (stereo not drawn) [Compound 71, (4-((2-(difluoromethyl)-2H-tetrazol-5-yl)(phenyl)methyl)piperazin-1-yl)(4-(5-(pyrrolidin-1-yl)benzo[d]oxazol-2-yl)pyridin-2-yl)methanone]	31 nM	52 nM
Cn1nnc(C(c2ccccc2)N2CC3CC(C2)N3C(=O)c2cc(-c3nc4cc(NC(=O)C5CC5)ccc4o3)ccn2)n1 (stereo not drawn) [Compound 21, N-(2-(2-(3-((2-methyl-2H-tetrazol-5-yl)(phenyl)methyl)-3,6-diazabicyclo[3.1.1]heptane-6-carbonyl)pyridin-4-yl)benzo[d]oxazol-5-yl)cyclopropanecarboxamide]	163 nM	436 nM
CC(=O)Nc1ccc2oc(-c3ccnc(C(=O)N4CCN(C(c5ccccc5)c5nnn(C(F)F)n5)CC4)c3F)nc2c1 (stereo not drawn) [Compound 56, N-(2-(2-(4-((2-(difluoromethyl)-2H-tetrazol-5-yl)(phenyl)methyl)piperazine-1-carbonyl)-3-fluoropyridin-4-yl)benzo[d]oxazol-5-yl)acetamide]	17 nM	33 nM
CC(=O)Nc1ccc2oc(-c3ccnc(C(=O)N4C5CC4CN(C(c4ccccc4)c4nnn(C)n4)C5)c3)nc2c1 (stereo not drawn) [Compound 20, N-(2-(2-(3-((2-methyl-2H-tetrazol-5-yl)(phenyl)methyl)-3,6-diazabicyclo[3.1.1]heptane-6-carbonyl)pyridin-4-yl)benzo[d]oxazol-5-yl)acetamide]	545 nM	919 nM
CC(=O)Nc1ccc2oc(-c3ccnc(C(=O)N4CC5CN(C(c6ccccc6)c6nnn(C)n6)CC5C4)c3)nc2c1 (stereo not drawn) [Compound 3, N-(2-(2-(5-((2-methyl-2H-tetrazol-5-yl)(phenyl)methyl)octahydropyrrolo[3,4-c]pyrrole-2-carbonyl)pyridin-4-yl)benzo[d]oxazol-5-yl)acetamide]	780 nM	1170 nM
CC(=O)Nc1ccc2oc(-c3ccnc(C(=O)N4C[C@@H]5C[C@H]4CN5C(c4ccccc4)c4nnn(C)n4)c3)nc2c1 (stereo partly drawn) [Compound 14, N-(2-(2-((1S,4S)-5-((2-methyl-2H-tetrazol-5-yl)(phenyl)methyl)-2,5-diazabicyclo[2.2.1]heptane-2-carbonyl)pyridin-4-yl)benzo[d]oxazol-5-yl)acetamide]	383 nM	1100 nM
Cn1nnc(C(c2ccccc2)N2CCN(C(=O)c3cc(-c4nc5cc(NC(=O)[C@H]6C[C@@H]6F)ccc5o4)ccn3)CC2)n1 (stereo partly drawn) [Compound 27, (1R,2S)-2-fluoro-N-(2-(2-(4-((2-methyl-2H-tetrazol-5-yl)(phenyl)methyl)piperazine-1-carbonyl)pyridin-4-yl)benzo[d]oxazol-5-yl)cyclopropane-1-carboxamide]	33 nM	127 nM
CC(=O)Nc1ccc2oc(-c3ccnc(C(=O)N4CCC(=C(c5ccccc5)c5nnn(C)n5)CC4)c3)nc2c1 [Compound 49, N-(2-(2-(4-((2-methyl-2H-tetrazol-5-yl)(phenyl)methylene)piperidine-1-carbonyl)pyridin-4-yl)benzo[d]oxazol-5-yl)acetamide]	112 nM	180 nM
CCC(=O)Nc1ccc2oc(-c3ccnc(C(=O)N4CCN(C(c5ccccc5)c5nnn(C(F)F)n5)CC4)c3)nc2c1 (racemic) [Compound 96, (R/S)—N-(2-(2-(4-((2-(difluoromethyl)-2H-tetrazol-5-yl)(phenyl)methyl)piperazine-1-carbonyl)pyridin-4-yl)benzo[d]oxazol-5-yl)propionamide]	12 nM	7 nM
Cn1nnc(C(c2ccccc2)N2CCN(C(=O)c3cc(-c4nc5cc(NC(=O)[C@H]6C[C@H]6F)ccc5o4)ccn3)CC2)n1 (stereo partly drawn) [Compound 28, (1R,2R)-2-fluoro-N-(2-(2-(4-((2-methyl-2H-tetrazol-5-yl)(phenyl)methyl)piperazine-1-carbonyl)pyridin-4-yl)benzo[d]oxazol-5-yl)cyclopropane-1-carboxamide]	17 nM	27 nM
CC(=O)Nc1ccc2oc(-c3ccnc(C(=O)N4C5CCC4CN(C(c4ccccc4)c4nnn(CCF)n4)C5)c3)nc2c1 (stereo not drawn) [Compound 22, N-(2-(2-(3-((2-(2-fluoroethyl)-2H-tetrazol-5-yl)(phenyl)methyl)-3,8-diazabicyclo[3.2.1]octane-8-carbonyl)pyridin-4-yl)benzo[d]oxazol-5-yl)acetamide]	25 nM	33 nM
O=C(c1cc(-c2nc3cc(O[C@H]4CCOC4)ccc3o2)ccn1)N1CCN(C(c2ccccc2)c2nnn(C(F)F)n2)CC1 (stereo partly drawn) [Compound 39, (4-((2-(difluoromethyl)-2H-tetrazol-5-yl)(phenyl)methyl)piperazin-1-yl)(4-(5-(((S)-tetrahydrofuran-3-yl)oxy)benzo[d]oxazol-2-yl)pyridin-2-yl)methanone]	4 nM	11 nM
CC(=O)Nc1ccc2oc(-c3ccnc(C(=O)N4CCN(C(c5ccccc5)c5nnn(C)n5)CC45CC5)c3)nc2c1 (stereo not drawn) [Compound 5, N-(2-(2-(7-((2-methyl-2H-tetrazol-5-yl)(phenyl)methyl)-4,7-diazaspiro[2.5]octane-4-carbonyl)pyridin-4-yl)benzo[d]oxazol-5-yl)acetamide]	16 nM	24 nM
Cn1nnc(C(c2ccccc2)N2CCN(C(=O)c3cc(-c4nc5cc(NC(=O)C6CC6)ccc5o4)ccn3)CC2)n1 (stereo not drawn) [Compound 35, N-(2-(2-(4-((2-methyl-2H-tetrazol-5-yl)(phenyl)methyl)piperazine-1-carbonyl)pyridin-4-yl)benzo[d]oxazol-5-yl)cyclopropanecarboxamide]	12 nM	19 nM
CC(=O)Nc1ccc2oc(-c3ccc(C#N)c(C(=O)N4CCN(C(c5ccccc5)c5nnn(C)n5)CC4)c3)nc2c1 (stereo not drawn) [Compound 15, N-(2-(4-cyano-3-(4-((2-methyl-2H-tetrazol-5-yl)(phenyl)methyl)piperazine-1-carbonyl)phenyl)benzo[d]oxazol-5-yl)acetamide]	> 10000 nM	> 10000 nM
Cn1nnc(C(c2ccccc2)N2CCN(C(=O)c3cc(-c4nc5cc(N6CCOC6=O)ccc5o4)ccn3)CC2)n1 (stereo not drawn) [Compound 50, 3-(2-(2-(4-((2-methyl-2H-tetrazol-5-yl)(phenyl)methyl)piperazine-1-carbonyl)pyridin-4-yl)benzo[d]oxazol-5-yl)oxazolidin-2-one]	242 nM	120 nM
CC(=O)Nc1ccc2oc(-c3ccnc(C(=O)N4CCN(C(c5ccccc5)c5nnn(C(F)F)n5)CC4)c3)nc2c1 (stereo not drawn) [Compound 40, N-(2-(2-(4-((2-(difluoromethyl)-2H-tetrazol-5-yl)(phenyl)methyl)piperazine-1-carbonyl)pyridin-4-yl)benzo[d]oxazol-5-yl)acetamide]	16 nM	24 nM
